Experimental data published in ChEMBL document CHEMBL1201861, “Genomics of Drug Sensitity in Cancer screening data, Wellcome Trust Sanger Institute”.

Key:
Assay in all cases: cells
Assay type in all cases: functional, cell-based, Homo sapiens
[1] = system: NEC8; settings: nec8;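 also: growth inhibition of human NEC8 cells, read out by a cell viability assay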
Description: SANGER: Inhibition of human NEC8 cell growth in a cell viability assay.

[2] = system: KALS-1; settings: kals-1;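 also: growth inhibition of KALS-1 cells, determined with a cell viability assay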
Description: SANGER: Inhibition of human KALS-1 cell growth in a cell viability assay.

[3] = system: LS-513; settings: ls-513
Description: SANGER: Inhibition of human LS-513 cell growth in a cell viability assay.

[4] = system: RPMI-8226; settings: rpmi-8226
Description: SANGER: Inhibition of human RPMI-8226 cell growth in a cell viability assay.

[5] = system: SW872; settings: sw872;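 also: growth inhibition of SW872 cells, read out by a viability assay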
Description: SANGER: Inhibition of human SW872 cell growth in a cell viability assay.

[6] = system: P30-OHK; settings: p30-ohk;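 also: growth inhibition of the P30-OHK cell line, read out with a cell viability assay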
Description: SANGER: Inhibition of human P30-OHK cell growth in a cell viability assay.

[7] = system: KY821; settings: ky821;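 also: growth inhibition of human KY821 cells, read out by a cell viability assay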
Description: SANGER: Inhibition of human KY821 cell growth in a cell viability assay.

[8] = system: K562; settings: k562
Description: SANGER: Inhibition of human K-562 cell growth in a cell viability assay.

[9] = system: MOLT-16; settings: molt-16;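 also: growth inhibition of human MOLT-16 cells, read out with a cell viability assay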
Description: SANGER: Inhibition of human MOLT-16 cell growth in a cell viability assay.

[10] = system: TE-10; settings: te-10;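 also: growth inhibition of TE-10 cells, measured by a cell viability assay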
Description: SANGER: Inhibition of human TE-10 cell growth in a cell viability assay.

[11] = system: KARPAS-45; settings: karpas-45;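 also: inhibition of cell line growth, read out through a viability assay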
Description: SANGER: Inhibition of human KARPAS-45 cell growth in a cell viability assay.

[12] = system: KGN; settings: kgn;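 also: growth inhibition of KGN cells, read out with a cell viability assay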
Description: SANGER: Inhibition of human KGN cell growth in a cell viability assay.

[13] = system: ACN; settings: acn;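 also: growth inhibition of the human ACN cell line, read out via cell viability testing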
Description: SANGER: Inhibition of human ACN cell growth in a cell viability assay.

[14] = system: PSN1; settings: psn1;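 also: suppression of growth of human PSN1 cells, read out by a cell viability assay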
Description: SANGER: Inhibition of human PSN1 cell growth in a cell viability assay.

[15] = system: EC-GI-10; settings: ec-gi-10
Description: SANGER: Inhibition of human EC-GI-10 cell growth in a cell viability assay.

[16] = system: GI-ME-N; settings: gi-me-n;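 also: growth inhibition of human GI-ME-N cells, read out with a cell viability assay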
Description: SANGER: Inhibition of human GI-ME-N cell growth in a cell viability assay.

[17] = system: CW-2; settings: cw-2;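 also: growth inhibition of CW-2 cells, read out by a cell viability assay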
Description: SANGER: Inhibition of human CW-2 cell growth in a cell viability assay.

[18] = system: ES7; settings: es7;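 also: growth inhibition of cultured human ES7 cells, read out as cell viability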
Description: SANGER: Inhibition of human ES7 cell growth in a cell viability assay.

[19] = system: NB10; settings: nb10;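 also: growth inhibition of NB10 cells, read out by a cell viability assay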
Description: SANGER: Inhibition of human NB10 cell growth in a cell viability assay.

[20] = system: LS-411N; settings: ls-411n
[21] = system: NCI-H446; settings: nci-h446;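 also: growth inhibition of NCI-H446 cells determined by a cell viability assay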
Description: SANGER: Inhibition of human NCI-H446 cell growth in a cell viability assay.

[22] = system: NCI-H1650; settings: nci-h1650;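 also: growth inhibition of human NCI-H1650 cells measured by a cell viability assay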
Description: SANGER: Inhibition of human NCI-H1650 cell growth in a cell viability assay.

[23] = system: SW684; settings: sw684;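 also: growth inhibition of human SW684 cells, measured by a cell viability assay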
Description: SANGER: Inhibition of human SW684 cell growth in a cell viability assay.

[24] = system: SCH; settings: sch;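 also: growth inhibition of human SCH cells, read out in a cell viability assay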
Description: SANGER: Inhibition of human SCH cell growth in a cell viability assay.

[25] = system: LB831-BLC; settings: lb831-blc;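 also: growth inhibition of LB831-BLC cells, read out with a cell viability assay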
Description: SANGER: Inhibition of human LB831-BLC cell growth in a cell viability assay.

[26] = system: NOMO-1; settings: nomo-1;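 also: growth inhibition of human NOMO-1 cells measured by a cell viability assay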
Description: SANGER: Inhibition of human NOMO-1 cell growth in a cell viability assay.

[27] = system: JVM-3; settings: jvm-3;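 also: growth inhibition of human JVM-3 cells, read out with a cell viability assay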
Description: SANGER: Inhibition of human JVM-3 cell growth in a cell viability assay.

[28] = system: LB373-MEL-D; settings: lb373-mel-d;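 also: growth inhibition of the cell line, read out in a cell viability assay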
Description: SANGER: Inhibition of human LB373-MEL-D cell growth in a cell viability assay.

[29] = system: A101D; settings: a101d;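 also: growth inhibition of the cell line, measured with a viability assay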
Description: SANGER: Inhibition of human A101D cell growth in a cell viability assay.

[30] = system: TE-11; settings: te-11;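 also: growth inhibition of human TE-11 cells, read out by a cell viability assay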
Description: SANGER: Inhibition of human TE-11 cell growth in a cell viability assay.

[31] = system: KE-37; settings: ke-37;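 also: growth inhibition of KE-37 cells, read out with a cell viability assay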
Description: SANGER: Inhibition of human KE-37 cell growth in a cell viability assay.

[32] = system: NOS-1; settings: nos-1;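 also: growth inhibition of the human NOS-1 cell line, read out with a cell viability assay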
Description: SANGER: Inhibition of human NOS-1 cell growth in a cell viability assay.

[33] = system: KINGS-1; settings: kings-1;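 also: cell viability assay measuring suppression of KINGS-1 cell growth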
Description: SANGER: Inhibition of human KINGS-1 cell growth in a cell viability assay.

[34] = system: BT-474; settings: bt-474
Description: SANGER: Inhibition of human BT-474 cell growth in a cell viability assay.

[35] = system: RKO; settings: rko;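 also: growth inhibition of human RKO cells, read out with a cell viability assay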
Description: SANGER: Inhibition of human RKO cell growth in a cell viability assay.

[36] = system: ES5; settings: es5;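 also: growth inhibition of human ES5 cells, read out by a cell viability assay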
Description: SANGER: Inhibition of human ES5 cell growth in a cell viability assay.

[37] = system: NCI-H1581; settings: nci-h1581;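 also: cell growth inhibition read out by a viability assay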
Description: SANGER: Inhibition of human NCI-H1581 cell growth in a cell viability assay.

[38] = system: LC-2-ad; settings: lc-2-ad;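 also: growth inhibition of human LC-2-ad cells, read out with a cell viability assay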
Description: SANGER: Inhibition of human LC-2-ad cell growth in a cell viability assay.

[39] = system: Lu-65; settings: lu-65;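 also: growth inhibition of Lu-65 cancer cells, read out by a cell viability assay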
Description: SANGER: Inhibition of human LU-65 cell growth in a cell viability assay.

[40] = system: NCI-H1648; settings: nci-h1648;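 also: cell viability assay measuring inhibition of NCI-H1648 cell growth, from the Sanger screening data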
Description: SANGER: Inhibition of human NCI-H1648 cell growth in a cell viability assay.

[41] = system: ES6; settings: es6;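 also: growth inhibition of human ES6 cells, read out with a cell viability assay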
Description: SANGER: Inhibition of human ES6 cell growth in a cell viability assay.

[42] = system: SBC-1; settings: sbc-1;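 also: cell viability assay measuring growth inhibition of the SBC-1 cell line, IC50 being the concentration that halves growth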
Description: SANGER: Inhibition of human SBC-1 cell growth in a cell viability assay.

[43] = system: JVM-2; settings: jvm-2;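 also: growth inhibition of JVM-2 cells determined by a cell viability assay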
Description: SANGER: Inhibition of human JVM-2 cell growth in a cell viability assay.

[44] = system: ES4; settings: es4;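 also: growth inhibition of human ES4 cells, read out by a cell viability assay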
Description: SANGER: Inhibition of human ES4 cell growth in a cell viability assay.

[45] = system: KG-1; settings: kg-1;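 also: growth inhibition of KG-1 cells, read out by a cell viability assay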
Description: SANGER: Inhibition of human KG-1 cell growth in a cell viability assay.

[46] = system: MZ2-MEL; settings: mz2-mel;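 also: growth inhibition of MZ2-MEL cells read out with a cell viability assay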
Description: SANGER: Inhibition of human MZ2-MEL cell growth in a cell viability assay.

[47] = system: NMC-G1; settings: nmc-g1;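 also: growth inhibition of the NMC-G1 cell line, measured with a cell viability read-out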
Description: SANGER: Inhibition of human NMC-G1 cell growth in a cell viability assay.

[48] = system: NCI-N87; settings: nci-n87;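 also: growth inhibition of human NCI-N87 cells, read out with a cell viability assay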
Description: SANGER: Inhibition of human NCI-N87 cell growth in a cell viability assay.

[49] = system: KARPAS-299; settings: karpas-299
Description: SANGER: Inhibition of human KARPAS-299 cell growth in a cell viability assay.

[50] = system: TK-10; settings: tk-10;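 also: growth inhibition of TK-10 cells, read out in a cell viability assay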
Description: SANGER: Inhibition of human TK10 cell growth in a cell viability assay.

BLEOMYCIN
IC50 [1]: 0.0269 µM | IC50 [2]: 11.7 µM | IC50 [3]: 29 µM | IC50 [4]: 906 µM | IC50 [5]: 3.45 µM | IC50 [6]: 7.1 µM | IC50 [7]: 471 µM | IC50 [8]: 126 µM | IC50 [9]: 29.5 µM | IC50 [10]: 0.783 µM | IC50 [11]: 213 µM | IC50 [12]: 0.00371 µM | IC50 [13]: 0.808 µM | IC50 [14]: 0.139 µM | IC50 [15]: 305 µM | IC50 [16]: 0.441 µM | IC50 [17]: 564 µM | IC50 [18]: 0.378 µM | IC50 [19]: 13.8 µM | IC50 [20]: 0.0528 µM | IC50 [21]: 18.9 µM | IC50 [22]: 0.499 µM | IC50 [23]: 3870 µM | IC50 [24]: 444 µM | IC50 [25]: 8.38 µM | IC50 [26]: 4.2 µM | IC50 [27]: 429 µM | IC50 [28]: 56.4 µM | IC50 [29]: 0.62 µM | IC50 [30]: 6.08 µM | IC50 [31]: 25.9 µM | IC50 [32]: 1.31 µM | IC50 [33]: 1270 µM | IC50 [34]: 2080 µM | IC50 [35]: 0.524 µM | IC50 [36]: 0.505 µM | IC50 [37]: 110 µM | IC50 [38]: 0.0804 µM | IC50 [39]: 19.5 µM | IC50 [40]: 20.3 µM | IC50 [41]: 0.406 µM | IC50 [42]: 370 µM | IC50 [43]: 0.572 µM | IC50 [44]: 0.0383 µM | IC50 [45]: 0.131 µM | IC50 [46]: 2.95 µM | IC50 [47]: 0.0119 µM | IC50 [48]: 2.96 µM | IC50 [49]: 27.2 µM | IC50 [50]: 0.999 µM

CISPLATIN
IC50 [1]: 2.52 µM | IC50 [2]: 71.1 µM | IC50 [3]: 61.6 µM | IC50 [4]: 192 µM | IC50 [5]: 40.8 µM | IC50 [6]: 2.71 µM | IC50 [7]: 80 µM | IC50 [8]: 509 µM | IC50 [9]: 8.36 µM | IC50 [10]: 158 µM | IC50 [11]: 361 µM | IC50 [12]: 17.6 µM | IC50 [13]: 34.3 µM | IC50 [14]: 1.68 µM | IC50 [15]: 13.2 µM | IC50 [16]: 11 µM | IC50 [17]: 24.5 µM | IC50 [18]: 1.87 µM | IC50 [19]: 11.5 µM | IC50 [20]: 66.4 µM | IC50 [21]: 37.4 µM | IC50 [22]: 19 µM | IC50 [23]: 590 µM | IC50 [24]: 13.2 µM | IC50 [25]: 225 µM | IC50 [26]: 123 µM | IC50 [27]: 39.7 µM | IC50 [28]: 11 µM | IC50 [29]: 21.7 µM | IC50 [30]: 16.4 µM | IC50 [31]: 31.5 µM | IC50 [32]: 147 µM | IC50 [33]: 42.8 µM | IC50 [34]: 1100 µM | IC50 [35]: 66.8 µM | IC50 [36]: 3.32 µM | IC50 [37]: 12.2 µM | IC50 [38]: 12.2 µM | IC50 [39]: 559 µM | IC50 [40]: 69.7 µM | IC50 [41]: 21.3 µM | IC50 [42]: 141 µM | IC50 [43]: 568 µM | IC50 [44]: 1.6 µM | IC50 [45]: 3.63 µM | IC50 [46]: 13.4 µM | IC50 [47]: 14.5 µM | IC50 [48]: 33 µM | IC50 [49]: 172 µM | IC50 [50]: 31 µM
